Experimental data reported in ChEMBL document CHEMBL2380255, “Dual targeting of adenosine A(2A) receptors and monoamine oxidase B by 4H-3,1-benzothiazin-4-ones” (J Med Chem, 2013).

Assays:
[1] = Selectivity ratio of IC50 for MAO-B in mitochondria-enriched Sprague-Dawley rat liver fractions to IC50 for recombinant human MAO-B
[2] = biological target: T1, Amine oxidase [flavin-containing] B (Homo sapiens, UniProt P27338); assay: Inhibition of recombinant human MAO-B expressed in baculovirus-infected insect cells using p-tyramine as substrate incubated for 30 mins prior to substrate addition measured for 45 mins by amplex red reagent-based microplate fluorescence reader analysis; format: cell-based
T1 sequence (P27338 whole entry): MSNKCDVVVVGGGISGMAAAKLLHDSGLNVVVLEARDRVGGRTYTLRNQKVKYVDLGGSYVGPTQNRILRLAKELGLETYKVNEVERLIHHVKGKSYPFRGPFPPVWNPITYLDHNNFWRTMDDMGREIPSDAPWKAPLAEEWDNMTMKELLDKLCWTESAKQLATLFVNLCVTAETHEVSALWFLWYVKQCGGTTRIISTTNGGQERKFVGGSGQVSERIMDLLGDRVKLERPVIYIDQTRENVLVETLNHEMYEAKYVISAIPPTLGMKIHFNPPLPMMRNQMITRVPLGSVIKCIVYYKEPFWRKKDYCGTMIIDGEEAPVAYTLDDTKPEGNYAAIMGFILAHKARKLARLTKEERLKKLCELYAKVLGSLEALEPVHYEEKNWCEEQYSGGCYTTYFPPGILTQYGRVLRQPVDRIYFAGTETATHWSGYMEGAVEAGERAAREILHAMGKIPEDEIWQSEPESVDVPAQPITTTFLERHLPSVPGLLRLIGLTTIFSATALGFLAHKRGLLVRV

[3] = biological target: T2, Amine oxidase [flavin-containing] B (Rattus norvegicus, UniProt P19643); assay: Inhibition of MAO-B in mitochondria-enriched Sprague-Dawley rat liver fractions using p-tyramine as substrate incubated for 30 mins prior to substrate addition measured for 45 mins by amplex red reagent-based microplate fluorescence reader analysis
T2 sequence (P19643 whole entry): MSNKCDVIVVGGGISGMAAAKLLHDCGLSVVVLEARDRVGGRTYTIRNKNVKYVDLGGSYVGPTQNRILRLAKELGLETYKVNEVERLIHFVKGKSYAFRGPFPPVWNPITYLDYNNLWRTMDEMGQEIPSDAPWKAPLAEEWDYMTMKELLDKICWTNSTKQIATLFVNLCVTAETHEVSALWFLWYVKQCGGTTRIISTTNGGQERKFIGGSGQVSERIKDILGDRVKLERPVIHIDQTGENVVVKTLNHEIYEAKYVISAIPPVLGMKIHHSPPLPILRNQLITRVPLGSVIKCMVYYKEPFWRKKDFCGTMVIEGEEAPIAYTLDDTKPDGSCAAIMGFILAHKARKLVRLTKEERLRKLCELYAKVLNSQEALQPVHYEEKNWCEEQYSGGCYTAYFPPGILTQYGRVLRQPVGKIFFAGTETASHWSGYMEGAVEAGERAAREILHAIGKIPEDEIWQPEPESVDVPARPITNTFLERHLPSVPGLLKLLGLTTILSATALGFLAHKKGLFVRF

Adenosine receptor A3 [4] = biological target: T3, Adenosine receptor A3 (Homo sapiens, UniProt P0DMS8); assay: Displacement of [3H]PSB-11 from human recombinant adenosine A3 receptor expressed in CHO cells after 60 mins by liquid scintillation counting analysis; format: cell-based
T3 sequence (P0DMS8 whole entry): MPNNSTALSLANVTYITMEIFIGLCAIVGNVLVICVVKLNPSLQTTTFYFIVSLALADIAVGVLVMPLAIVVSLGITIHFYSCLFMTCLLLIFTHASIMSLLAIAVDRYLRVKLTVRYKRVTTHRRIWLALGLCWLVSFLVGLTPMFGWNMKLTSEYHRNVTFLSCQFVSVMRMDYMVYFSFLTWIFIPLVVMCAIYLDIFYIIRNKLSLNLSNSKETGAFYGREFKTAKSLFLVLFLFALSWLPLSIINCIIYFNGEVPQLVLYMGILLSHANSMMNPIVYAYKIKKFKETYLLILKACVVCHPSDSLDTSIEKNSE

Adenosine receptor A2b = biological target: T4, Adenosine receptor A2b (Homo sapiens, UniProt P29275); assay: Displacement of [3H]PSB-603 from human recombinant adenosine A2B receptor expressed in CHO cells after 75 mins by liquid scintillation counting analysis; format: cell-based
T4 sequence (P29275 whole entry): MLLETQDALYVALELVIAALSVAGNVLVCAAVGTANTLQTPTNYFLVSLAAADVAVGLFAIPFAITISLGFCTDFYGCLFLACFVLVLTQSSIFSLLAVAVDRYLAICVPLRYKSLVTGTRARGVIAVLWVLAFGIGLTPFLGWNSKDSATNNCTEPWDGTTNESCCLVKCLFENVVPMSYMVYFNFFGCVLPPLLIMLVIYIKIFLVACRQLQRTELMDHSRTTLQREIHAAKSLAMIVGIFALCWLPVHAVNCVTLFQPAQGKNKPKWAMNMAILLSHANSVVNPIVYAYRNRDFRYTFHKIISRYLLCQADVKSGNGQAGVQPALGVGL

Adenosine receptor A2a [5] = biological target: Adenosine receptor A2a (Homo sapiens, UniProt P29274); assay: Displacement of [3H]MSX2 from human recombinant adenosine A2A receptor expressed in CHO cells after 30 mins by liquid scintillation counting analysis; format: cell-based
Adenosine receptor A1 [6] = biological target: T5, Adenosine receptor A1 (Homo sapiens, UniProt P30542); assay: Displacement of [3H]CCPA from human recombinant adenosine A1 receptor expressed in CHO cells after 90 mins by liquid scintillation counting analysis; format: cell-based
T5 sequence (P30542 whole entry): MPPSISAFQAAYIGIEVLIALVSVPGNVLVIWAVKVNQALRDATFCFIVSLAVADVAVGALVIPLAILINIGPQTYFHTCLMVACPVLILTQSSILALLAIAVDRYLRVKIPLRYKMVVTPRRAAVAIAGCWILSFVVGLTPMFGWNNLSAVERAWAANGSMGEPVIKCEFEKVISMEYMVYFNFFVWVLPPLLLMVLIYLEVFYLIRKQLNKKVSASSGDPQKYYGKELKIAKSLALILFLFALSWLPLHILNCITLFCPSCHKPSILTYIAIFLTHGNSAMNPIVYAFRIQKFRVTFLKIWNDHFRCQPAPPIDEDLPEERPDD

Adenosine receptor A2a [7] = biological target: Adenosine receptor A2a (Rattus norvegicus, UniProt P30543); assay: Displacement of [3H]MSX2 from adenosine A2A receptor in rat brain striatal membranes after 30 mins by liquid scintillation counting analysis; format: cell membranes, Membrane
Adenosine receptor A1 [8] = biological target: T6, Adenosine receptor A1 (Rattus norvegicus, UniProt P25099); assay: Displacement of [3H]CCPA from adenosine A1 receptor in rat brain cortical membranes after 90 mins by liquid scintillation counting analysis; format: cell membranes, Membrane
T6 sequence (P25099 whole entry): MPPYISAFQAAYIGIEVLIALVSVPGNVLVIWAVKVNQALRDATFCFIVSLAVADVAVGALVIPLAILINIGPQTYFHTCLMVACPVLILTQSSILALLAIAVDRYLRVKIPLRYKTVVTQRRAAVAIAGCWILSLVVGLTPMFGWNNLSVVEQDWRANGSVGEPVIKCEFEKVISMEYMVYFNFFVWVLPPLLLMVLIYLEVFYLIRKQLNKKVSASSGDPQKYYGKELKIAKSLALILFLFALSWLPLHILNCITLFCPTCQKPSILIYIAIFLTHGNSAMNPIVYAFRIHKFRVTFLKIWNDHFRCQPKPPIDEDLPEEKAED

[9] = biological target: T1, Amine oxidase [flavin-containing] B; assay: Reversible inhibition of human MAO-B using p-tyramine as substrate at IC80 incubated for 22 mins followed by substrate addition measured for 5 hrs by fluorescence assay
Homo sapiens [10] = species: Homo sapiens; assay: Selectivity ratio of Ki for human recombinant adenosine A1 receptor to Ki for human recombinant adenosine A2A receptor
Homo sapiens [11] = species: Homo sapiens; assay: Selectivity ratio of Ki for human recombinant adenosine A3 receptor to Ki for human recombinant adenosine A2A receptor
Homo sapiens [12] = species: Homo sapiens; assay: Selectivity ratio of Ki for human recombinant adenosine A2B receptor to Ki for human recombinant adenosine A2A receptor
[13] = Selectivity ratio of Ki for adenosine A2A receptor in rat brain striatal membranes to Ki for human recombinant adenosine A2A receptor; format: cell membranes; details: Membrane
Adenosine receptor A1 [14] = biological target: T5, Adenosine receptor A1; assay: Displacement of [3H]CCPA from human recombinant adenosine A1 receptor expressed in CHO cells
Adenosine receptor A3 [15] = biological target: T3, Adenosine receptor A3; assay: Displacement of [3H]PSB-11 from human recombinant adenosine A3 receptor expressed in CHO cells; format: cell-based
[16] = Selectivity ratio of Ki for human recombinant adenosine A1 receptor to Ki for adenosine A1 receptor in rat brain cortical membranes; format: cell membranes; details: Membrane
[17] = Stability of the compound in DMSO at 1 mg/ml under daylight condition at 20 degC after 24 hrs by LC-MS analysis; format: physicochemical

Adenosine receptor A2a (Rattus norvegicus, UniProt P30543), sequence (P30543 whole entry): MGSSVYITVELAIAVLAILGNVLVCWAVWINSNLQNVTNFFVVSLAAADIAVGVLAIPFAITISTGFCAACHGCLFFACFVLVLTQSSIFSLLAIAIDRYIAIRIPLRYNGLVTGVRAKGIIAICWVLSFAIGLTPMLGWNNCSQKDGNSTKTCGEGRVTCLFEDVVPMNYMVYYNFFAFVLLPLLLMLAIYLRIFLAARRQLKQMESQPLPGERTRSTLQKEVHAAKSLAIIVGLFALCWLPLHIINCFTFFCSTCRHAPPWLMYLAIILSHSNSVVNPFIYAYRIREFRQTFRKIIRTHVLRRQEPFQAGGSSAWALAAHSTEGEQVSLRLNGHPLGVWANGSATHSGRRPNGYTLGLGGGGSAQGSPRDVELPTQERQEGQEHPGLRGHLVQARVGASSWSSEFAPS
Adenosine receptor A2a (Homo sapiens, UniProt P29274), sequence (P29274 whole entry): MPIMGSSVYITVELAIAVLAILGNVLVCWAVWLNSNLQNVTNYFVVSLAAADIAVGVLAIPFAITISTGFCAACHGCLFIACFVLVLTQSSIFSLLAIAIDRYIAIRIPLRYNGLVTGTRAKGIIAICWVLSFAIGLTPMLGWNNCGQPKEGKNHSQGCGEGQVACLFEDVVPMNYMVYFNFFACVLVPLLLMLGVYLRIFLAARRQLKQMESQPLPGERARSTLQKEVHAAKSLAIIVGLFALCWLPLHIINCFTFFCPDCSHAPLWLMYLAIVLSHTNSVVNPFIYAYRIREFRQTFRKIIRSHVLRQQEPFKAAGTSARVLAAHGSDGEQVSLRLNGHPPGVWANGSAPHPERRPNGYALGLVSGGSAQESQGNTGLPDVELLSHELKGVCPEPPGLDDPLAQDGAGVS

Compound	Ratio IC50 [1]	IC50 [2]	IC50 [3]	Ki (Adenosine receptor A3 [4])	Ki (Adenosine receptor A2b)	Ki (Adenosine receptor A2a [5])	Ki (Adenosine receptor A1 [6])	Ki (Adenosine receptor A2a [7])	Ki (Adenosine receptor A1 [8])	inhibition (INH) [9]	Ratio Ki (Homo sapiens [10])	Ratio Ki (Homo sapiens [11])	Ratio Ki (Homo sapiens [12])	Ratio Ki [13]	Ki (Adenosine receptor A1 [14])	Ki (Adenosine receptor A3 [15])	Ratio Ki [16]	Stability [17]
COc1cccc(CCCC(=O)Nc2nc3ccccc3c(=O)s2)c1	1.4	389 nM	1300 nM	382 nM	302 nM	115 nM	214 nM	558 nM	22.5 nM									
COc1cccc(CCC(=O)Nc2nc3ccccc3c(=O)s2)c1	1.4	95.3 nM	621 nM	173 nM	225 nM	64.9 nM	1370 nM	294 nM	367 nM	Active	21	3	4	> 4				
CCn1c(=O)c2c(nc(/C=C/c3ccc(OC)c(OC)c3)n2C)n(CC)c1=O [ISTRADEFYLLINE]															2830 nM	> 3000 nM		
O=C(Nc1nc2ccccc2c(=O)s1)c1ccc(C(=O)N2CCN(Cc3ccc(Cl)cc3)CC2)cc1	1.4	> 10000 nM		> 1000 nM	> 1000 nM	44.3 nM	4370 nM	488 nM			100	> 22	> 22					
COCCOc1ccc(N2CCN(CCn3ncc4c3nc(N)n3nc(-c5ccco5)nc43)CC2)cc1 [PRELADENANT]				> 1000 nM	> 1000 nM	0.884 nM	295 nM	0.66 nM	68.7 nM									
O=C(Nc1nc2ccccc2c(=O)s1)c1ccc(C(=O)N2CCN(Cc3ccccc3Cl)CC2)cc1	1.4	> 10000 nM		> 1000 nM	> 1000 nM	> 1000 nM	> 1000 nM	> 10000 nM										
O=C(CCCc1ccccc1)Nc1nc2sccc2c(=O)s1	1.4	69.7 nM	291 nM	> 1000 nM	361 nM	82.5 nM	364 nM	693 nM	35.2 nM	Active	4	12	4					
O=C(C/C=C/c1ccccc1)Nc1nc2ccccc2c(=O)s1	1.4	39.8 nM	361 nM	158 nM	119 nM	118 nM	822 nM	814 nM	53 nM									
COc1cccc(/C=C/CC(=O)Nc2nc3ccccc3c(=O)s2)c1	1.4	238 nM	2020 nM	115 nM	≥ 1000 nM	91.8 nM	500 nM	317 nM	11.2 nM								< 45	
COc1cccc(/C=C/C(=O)Nc2nc3ccccc3c(=O)s2)c1		470 nM	281 nM	> 1000 nM	679 nM	62.4 nM	> 10000 nM	253 nM	205 nM			> 16	10					
Cn1c(=O)c2c(nc(/C=C/c3cccc(Cl)c3)n2C)n(C)c1=O			38.5 nM	> 1000 nM			> 10000 nM											Unstable
O=C(C/C=C/c1cccc(Cl)c1)Nc1nc2ccccc2c(=O)s1	1.4	> 1000 nM	840 nM	> 1000 nM	> 1000 nM		562 nM	≥ 10000 nM	11.4 nM								< 45	
C[C@H](NCc1ccc(OCc2cccc(F)c2)cc1)C(N)=O [SAFINAMIDE]			25.8 nM							Active								
O=C(CCc1ccccc1)Nc1nc2ccccc2c(=O)s1	1.4	17.6 nM	42.7 nM	390 nM	365 nM	80.9 nM	1050 nM	103 nM	422 nM	Active	13	5	5					
